≈ marks a conversion by molar mass, not a printed value. Read-outs that look alike come from different tables or passages of the source.
Legend:
Assay in all cases: CellTiter-Glo in vitro cell proliferation assay, Example 8
N87 cells = assay type: cell-based; details: Homo sapiens, Example 24, N87, Gastric
Protocol: (§1) In this Example, in vitro cell proliferation assays were performed using: (1) Human Myeloma tumor cell lines; (2) Human Lymphoma tumor cell lines; (3) Solid Human tumor cell lines; and (4) Parental, Lenalidomide resistant and Bortezomib resistant Jeko-1 Mantle cell Lymphoma tumor cell lines. The compounds tested were three diharmaline compounds, namely the 518B562 (or simply 562), 560, and 561 compounds. In addition, a monoharmaline product designated as 518F014 was also tested. This monoharmaline product had the following structure:
(§2) Each proliferation assay was carried out as follows. The test cells were plated in growth media using a 384-well microtiter plate at 50 μL volume. The cells were incubated for 24 hours at 37° C. in a humidified incubator. After 24 hours of incubation, the test compounds were added to the test wells in DSMO solvent, at concentrations ranging from 0.0075-100 μM. Control wells received equal volumes of DSMO, without compound. Following drugging, the cells were incubated for 72 hours at 37° C. in a humidified incubator. After this exposure, 100 μL of a 1:1 mixture of sterile water and CellTiter-Glo® reagent (Promega) was added to each well. The plates were then incubated for 60 minutes at room temperature, followed by recording the luminescence value of each well using a luminometer as a measure of cell proliferation.

RXF-393 cells = assay type: cell-based; details: Homo sapiens, Example 24, RXF-393, RCC
Protocol: as §1, §2

SU-DHL-6 cells = assay type: cell-based; details: Homo sapiens, Example 24, SU-DHL-6, Diffuse Large B-Cell Lymphoma
Protocol: as §1, §2

SU-DHL-4 cells = assay type: cell-based; details: Homo sapiens, Example 24, SU-DHL-4, Diffuse Large B-Cell Lymphoma
Protocol: as §1, §2

HCC70 cells = assay type: cell-based, Human; details: Homo sapiens, Example 24, HCC70, Triple Negative Breast
Summary of the method: (§3)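 Growth was assessed on cells given 24 h to settle at 37 °C, then incubated 72 h with compound (0.0075–100 μM, DMSO carrier). A room-temperature, 60 min CellTiter-Glo step preceded luminescence measurement.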

DOHH-2 cells = assay type: cell-based, Human; details: Homo sapiens, Example 24, DOHH-2, Diffuse Large B-Cell Lymphoma
Summary of the method: as §3

L363 cells = assay type: cell-based, Human; details: L-363, Example 24, L363, human myeloma
Summary of the method: as §3

ASPC-1 cells = assay type: cell-based, Human; details: Homo sapiens, ASPC1, Example 24, ASPC-1, Pancreatic
Summary of the method: as §3

MDA-MB-231 cells = assay type: cell-based, Human; details: Homo sapiens, Example 24, MDA-MB-231, Triple Negative Breast
Summary of the method: as §3

SiHA cells = assay type: cell-based, Human; details: Homo sapiens, Example 24, Squamous
Summary of the method: as §3

KMS-34 cells = assay type: cell-based, Human; details: Example 24, KMS-34, human myeloma
Summary of the method: as §3

MDA-MB-468 cells = assay type: cell-based, Human; details: Homo sapiens, Example 24, MDA-MB-468, Triple Negative Breast
Summary of the method: as §3

KHM-1B cells = assay type: cell-based, Human; details: Example 24, human myeloma
Summary of the method: as §3

MM.1s cells = assay type: cell-based, Human; details: MM1.S, Example 24, MM.1S, human myeloma
Summary of the method: as §3

H1975 (EGFR mut) cells = assay type: cell-based, Human; details: Homo sapiens, NCI-H1975, Example 24, Non Small Cell Lung
Summary of the method: as §3

A2780 cells = assay type: cell-based, Human; details: Homo sapiens, Example 24, A2780, Ovarian
Summary of the method: as §3

KMS-11 cells = assay type: cell-based, Human; details: Example 24, KMS-11, human myeloma
Summary of the method: as §3

JIM1 cells = assay type: cell-based, Human; details: Example 24, JIM1, human myeloma
Summary of the method: as §3

A498 cells = assay type: cell-based, Human; details: Homo sapiens, Example 24, A498, RCC
Summary of the method: as §3

MIA PaCa-2 cells = assay type: cell-based, Human; details: Homo sapiens, Example 24, MIA PaCa-2, Pancreatic
Summary of the method: as §3

AN3CA cells = assay type: cell-based, Human; details: Homo sapiens, AN3-CA, Example 24, Endometrial
Summary of the method: as §3

HEC-1a cells = assay type: cell-based, Human; details: Homo sapiens, Example 24, Endometrial
Summary of the method: as §3

KMM-1 cells = assay type: cell-based, Human; details: Example 24, KMM-1, human myeloma
Summary of the method: as §3

FaDu cells = assay type: cell-based, Human; details: Homo sapiens, Example 24, Squamous
Summary of the method: as §3

H929 cells = assay type: cell-based, Human; details: NCI-H929, Example 24, H929, human myeloma
Summary of the method: as §3

`COc1ccc2c3c([nH]c2c1)C(CC(CC1=NCCc2c1[nH]c1cc(OC)ccc21)c1cccc(Oc2ccccc2)c1)=NCC3` [compound 594, diharmaline 3-phenoxybenzaldehyde] was tested, and the IC50 (N87 cells; read-out: Mean) was 4.26 µg/mL (≈ 7 µM), the IC50 (N87 cells; read-out: Trial A) was 3.48 µg/mL (≈ 5.72 µM) and the IC50 (N87 cells; read-out: Trial B) was 5.04 µg/mL (≈ 8.27 µM). It also gave an IC50 (RXF-393 cells; read-out: Mean) of 3.16 µg/mL (≈ 5.19 µM), an IC50 (RXF-393 cells; read-out: Trial A) of 3.16 µg/mL (≈ 5.19 µM) and an IC50 (RXF-393 cells; read-out: Trial B) of 3.16 µg/mL (≈ 5.19 µM). It also gave an IC50 (SU-DHL-6 cells; read-out: Mean) of 2.36 µg/mL (≈ 3.87 µM), an IC50 (SU-DHL-6 cells; read-out: Trial A) of 2.48 µg/mL (≈ 4.07 µM) and an IC50 (SU-DHL-6 cells; read-out: Trial B) of 2.23 µg/mL (≈ 3.67 µM). It also gave an IC50 (SU-DHL-4 cells; read-out: Mean) of 2.73 µg/mL (≈ 4.49 µM), an IC50 (SU-DHL-4 cells; read-out: Trial A) of 2.77 µg/mL (≈ 4.55 µM) and an IC50 (SU-DHL-4 cells; read-out: Trial B) of 2.7 µg/mL (≈ 4.44 µM). It also gave an IC50 (HCC70 cells; read-out: Mean) of 6.87 µg/mL (≈ 11.3 µM), an IC50 (HCC70 cells; read-out: Trial A) of 6.15 µg/mL (≈ 10.1 µM) and an IC50 (HCC70 cells; read-out: Trial B) of 7.59 µg/mL (≈ 12.5 µM). It also gave an IC50 (DOHH-2 cells; read-out: Mean) of 2.64 µg/mL (≈ 4.34 µM), an IC50 (DOHH-2 cells; read-out: Trial A) of 2.58 µg/mL (≈ 4.23 µM) and an IC50 (DOHH-2 cells; read-out: Trial B) of 2.71 µg/mL (≈ 4.45 µM). The IC50 (L363 cells; read-out: Mean) was 3.64 µg/mL (≈ 5.98 µM), the IC50 (L363 cells; read-out: Trial A) was 3.67 µg/mL (≈ 6.03 µM) and the IC50 (L363 cells; read-out: Trial B) was 3.6 µg/mL (≈ 5.92 µM). It also gave an IC50 (ASPC-1 cells; read-out: Mean) of 3.47 µg/mL (≈ 5.7 µM), an IC50 (ASPC-1 cells; read-out: Trial A) of 2.94 µg/mL (≈ 4.83 µM) and an IC50 (ASPC-1 cells; read-out: Trial B) of 3.99 µg/mL (≈ 6.56 µM). It also gave an IC50 (MDA-MB-231 cells; read-out: Mean) of 3.09 µg/mL (≈ 5.08 µM), an IC50 (MDA-MB-231 cells; read-out: Trial A) of 3.1 µg/mL (≈ 5.09 µM) and an IC50 (MDA-MB-231 cells; read-out: Trial B) of 3.08 µg/mL (≈ 5.07 µM). The IC50 (SiHA cells; read-out: Mean) was 8.73 µg/mL (≈ 14.3 µM), the IC50 (SiHA cells; read-out: Trial A) was 8.56 µg/mL (≈ 14.1 µM) and the IC50 (SiHA cells; read-out: Trial B) was 8.89 µg/mL (≈ 14.6 µM). For the same molecule, the IC50 (KMS-34 cells; read-out: Mean) was 3.89 µg/mL (≈ 6.39 µM), the IC50 (KMS-34 cells; read-out: Trial A) was 4.23 µg/mL (≈ 6.94 µM) and the IC50 (KMS-34 cells; read-out: Trial B) was 3.55 µg/mL (≈ 5.83 µM). The IC50 (MDA-MB-468 cells; read-out: Mean) was 2.79 µg/mL (≈ 4.58 µM), the IC50 (MDA-MB-468 cells; read-out: Trial A) was 2.9 µg/mL (≈ 4.76 µM) and the IC50 (MDA-MB-468 cells; read-out: Trial B) was 2.68 µg/mL (≈ 4.41 µM). For the same molecule, the IC50 (KHM-1B cells; read-out: Mean) was 6.65 µg/mL (≈ 10.9 µM), the IC50 (KHM-1B cells; read-out: Trial A) was 6.48 µg/mL (≈ 10.6 µM) and the IC50 (KHM-1B cells; read-out: Trial B) was 6.81 µg/mL (≈ 11.2 µM). It also gave an IC50 (MM.1s cells; read-out: Mean) of 2.57 µg/mL (≈ 4.22 µM), an IC50 (MM.1s cells; read-out: Trial A) of 2.48 µg/mL (≈ 4.08 µM) and an IC50 (MM.1s cells; read-out: Trial B) of 2.66 µg/mL (≈ 4.36 µM). For the same molecule, the IC50 (H1975 (EGFR mut) cells; read-out: Mean) was 2.9 µg/mL (≈ 4.76 µM), the IC50 (H1975 (EGFR mut) cells; read-out: Trial A) was 2.92 µg/mL (≈ 4.8 µM) and the IC50 (H1975 (EGFR mut) cells; read-out: Trial B) was 2.87 µg/mL (≈ 4.71 µM). For the same molecule, the IC50 (A2780 cells; read-out: Mean) was 2.58 µg/mL (≈ 4.23 µM), the IC50 (A2780 cells; read-out: Trial A) was 2.67 µg/mL (≈ 4.38 µM) and the IC50 (A2780 cells; read-out: Trial B) was 2.49 µg/mL (≈ 4.09 µM). For the same molecule, the IC50 (KMS-11 cells; read-out: Mean) was 6.04 µg/mL (≈ 9.92 µM), the IC50 (KMS-11 cells; read-out: Trial A) was 6.43 µg/mL (≈ 10.6 µM) and the IC50 (KMS-11 cells; read-out: Trial B) was 5.64 µg/mL (≈ 9.27 µM). The IC50 (JIM1 cells; read-out: Mean) was 7.67 µg/mL (≈ 12.6 µM), the IC50 (JIM1 cells; read-out: Trial A) was 7.41 µg/mL (≈ 12.2 µM) and the IC50 (JIM1 cells; read-out: Trial B) was 7.92 µg/mL (≈ 13 µM). It also gave an IC50 (A498 cells; read-out: Mean) of 4.69 µg/mL (≈ 7.7 µM), an IC50 (A498 cells; read-out: Trial A) of 4.82 µg/mL (≈ 7.91 µM) and an IC50 (A498 cells; read-out: Trial B) of 4.56 µg/mL (≈ 7.49 µM). The IC50 (MIA PaCa-2 cells; read-out: Mean) was 3.49 µg/mL (≈ 5.74 µM), the IC50 (MIA PaCa-2 cells; read-out: Trial A) was 3.81 µg/mL (≈ 6.27 µM) and the IC50 (MIA PaCa-2 cells; read-out: Trial B) was 3.17 µg/mL (≈ 5.21 µM). For the same molecule, the IC50 (AN3CA cells; read-out: Mean) was 2.79 µg/mL (≈ 4.59 µM), the IC50 (AN3CA cells; read-out: Trial A) was 2.79 µg/mL (≈ 4.59 µM) and the IC50 (AN3CA cells; read-out: Trial B) was 2.8 µg/mL (≈ 4.59 µM). It also gave an IC50 (HEC-1a cells; read-out: Mean) of 3.29 µg/mL (≈ 5.4 µM), an IC50 (HEC-1a cells; read-out: Trial A) of 3.15 µg/mL (≈ 5.17 µM) and an IC50 (HEC-1a cells; read-out: Trial B) of 3.42 µg/mL (≈ 5.63 µM). It also gave an IC50 (KMM-1 cells; read-out: Mean) of 2.57 µg/mL (≈ 4.22 µM), an IC50 (KMM-1 cells; read-out: Trial A) of 2.53 µg/mL (≈ 4.15 µM) and an IC50 (KMM-1 cells; read-out: Trial B) of 2.61 µg/mL (≈ 4.28 µM). The IC50 (FaDu cells; read-out: Mean) was 4.62 µg/mL (≈ 7.59 µM), the IC50 (FaDu cells; read-out: Trial A) was 3.78 µg/mL (≈ 6.21 µM) and the IC50 (FaDu cells; read-out: Trial B) was 5.45 µg/mL (≈ 8.96 µM). It also gave an IC50 (H929 cells; read-out: Mean) of 5.96 µg/mL (≈ 9.79 µM), an IC50 (H929 cells; read-out: Trial A) of 6.5 µg/mL (≈ 10.7 µM) and an IC50 (H929 cells; read-out: Trial B) of 5.42 µg/mL (≈ 8.9 µM).
